Values of other authors in patent US12102628B2, “Composition and methods for the treatment of myopia” (Seinda Pharmaceutical Guangzhou Corporation, priority 2017, dated 2024).
Like-named read-outs stand apart in the source and are kept apart here.

Assays:
myopic children = conditions: for Myopia progression: myopic children
[1] = ophthalmic use, concentrations per Table 2
[2] = not given; remark: listed apart in the source
M3 receptor = M3 receptor (Homo sapiens, UniProt P20309); conditions: M3 receptor-selective antagonists
M3 receptor, sequence (P20309 whole entry): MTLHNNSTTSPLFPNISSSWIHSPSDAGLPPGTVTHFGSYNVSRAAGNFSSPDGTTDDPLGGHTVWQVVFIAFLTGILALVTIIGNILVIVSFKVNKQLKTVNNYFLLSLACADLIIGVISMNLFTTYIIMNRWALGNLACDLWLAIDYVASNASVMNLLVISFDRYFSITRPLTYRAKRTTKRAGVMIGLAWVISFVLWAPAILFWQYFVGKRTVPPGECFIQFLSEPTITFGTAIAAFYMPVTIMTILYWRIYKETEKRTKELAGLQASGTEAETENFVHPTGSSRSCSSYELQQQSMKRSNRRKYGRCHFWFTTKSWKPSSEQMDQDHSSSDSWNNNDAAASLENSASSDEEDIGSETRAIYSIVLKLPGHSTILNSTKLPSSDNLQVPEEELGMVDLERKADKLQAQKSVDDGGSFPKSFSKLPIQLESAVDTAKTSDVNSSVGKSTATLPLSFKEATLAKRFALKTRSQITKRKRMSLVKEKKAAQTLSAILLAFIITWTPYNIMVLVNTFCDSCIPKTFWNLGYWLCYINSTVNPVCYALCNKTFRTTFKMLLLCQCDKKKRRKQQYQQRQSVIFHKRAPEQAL

Molecule | Acting Duration [1] [days] | logP | Aqueous Solubility [2] [µg/mL] | also measured
CN1[C@@H]2CC[C@H]1C[C@@H](OC(=O)C(CO)c1ccccc1)C2 (stereo partly drawn) [Atropine, atropine] | 7 to 14 |  |  | Effect on myopia progression (in words) (myopic children; 0.5% atropine solution): effectively slow the myopia progression; Myopia progression (myopic children; atropine concentration 0.1%): 0.47 diopter/yr; Myopia progression (myopic children; atropine concentration 0.25%): 0.45 diopter/yr; Myopia progression (myopic children; atropine concentration 0.5%): 0.04 diopter/yr; Pupil dilation diameter (pupil; 0.05% atropine solution, control group 2.93 mm): 5.52 mm; Photophobia ratio (pupil; low concentration atropine group): about 66.67%
CN(C)CCOC(=O)C(c1ccccc1)C1(O)CCCC1 (stereo not drawn) [Cyclopentolate] | 4 |  |  | 
NC(=O)C(c1ccccc1)(c1ccccc1)[C@@H]1CCN(CCc2ccc3c(c2)CCO3)C1 [Darifenacin] |  | 4.5 | 6030 | 
CN1CCN(CC(=O)N2c3ccccc3C(=O)Nc3cccnc32)CC1 [Pirenzepine] | <1 |  |  | 
c1ccc(C(O[C@@H]2CCCN(CCc3ccc4c(c3)OCO4)C2)c2ccccc2)cc1 [Zamifenacin] |  | 4.4 | 20 | Affinity (pKi) (M3 receptor): 9.3
Tiotropium |  |  | 25000 | 
